Measurements taken from ChEMBL document CHEMBL2157985, “Development of programmable small DNA-binding molecules with epigenetic activity for induction of core pluripotency genes” (Bioorg Med Chem, 2012).
The source made the active and inactive calls. The rule behind the calls is not given here.

Experiments:
MEF [1] = experiment: Cytotoxicity against C57BL/6 MEF at 100 nM by WST-8 assay; type: cell-based; details: mouse, 0.1 µM
MEF [2] = experiment: Induction of Oct3/4 gene expression in C57BL/6 MEF at 100 nM after 24 hrs by quantitative RT-PCR analysis relative to control; type: functional, Mus musculus; details: for Activity: Mus musculus
MEF [3] = experiment: Upregulation of Nanog gene expression in C57BL/6 MEF at 100 nM after 24 hrs by quantitative RT-PCR analysis relative to control; type: functional, Mus musculus; details: for Activity: Mus musculus
MEF [4] = experiment: Upregulation of Sox2 gene expression in C57BL/6 MEF at 100 nM after 24 hrs by quantitative RT-PCR analysis relative to control; type: functional, cell-based; details: Mus musculus
MEF [5] = experiment: Upregulation of Klf4 gene expression in C57BL/6 MEF at 100 nM after 24 hrs by quantitative RT-PCR analysis relative to control; type: functional, Mus musculus; details: for Activity: Mus musculus
MEF [6] = experiment: Upregulation of c-Myc gene expression in C57BL/6 MEF at 100 nM after 24 hrs by quantitative RT-PCR analysis relative to control; type: functional, Mus musculus; details: for Activity: Mus musculus
[7] = Inhibition of HDAC

Compound	Activity (MEF [1])	fold change (FC) (MEF [2])	fold change (FC) (MEF [3])	Activity (MEF [4])	fold change (FC) (MEF [5])	fold change (FC) (MEF [6])	HDAC inhibition activity [7]	Activity (MEF [5])	Activity (MEF [6])	Activity (MEF [3])	Activity (MEF [2])
CN(C)CCCNC(=O)c1cc(NC(=O)c2cc(NC(=O)c3cc(NC(=O)c4cc(NC(=O)CCCNC(=O)c5cc(NC(=O)c6cc(NC(=O)c7cc(NC(=O)c8nc(NC(=O)CCNC(=O)CCNC(=O)CCNC(=O)CCNC(=O)c9ccc(NC(=O)CCCCCCC(=O)NO)cc9)cn8C)cn7C)cn6C)cn5C)cn4C)cn3C)cn2C)cn1C	Non-toxic	3.6	2	Active	1.5	1.5	Active	–	–	–	–
CN(C)CCCNC(=O)CCNC(=O)c1cc(NC(=O)c2cc(NC(=O)c3cc(NC(=O)c4cc(NC(=O)CCCNC(=O)c5cc(NC(=O)c6cc(NC(=O)c7cc(NC(=O)c8nc(NC(=O)CCNC(=O)CCNC(=O)c9ccc(NC(=O)CCCCCCC(=O)NO)cc9)cn8C)cn7C)cn6C)cn5C)cn4C)cn3C)cn2C)cn1C	Non-toxic	2	2	Active	–	1.8	Active	Active	–	–	–
CN(C)CCCNC(=O)c1cc(NC(=O)c2cc(NC(=O)c3cc(NC(=O)c4cc(NC(=O)CCCNC(=O)c5cc(NC(=O)c6cc(NC(=O)c7cc(NC(=O)c8nc(NC(=O)CCNC(=O)c9ccc(NC(=O)CCCCCCC(=O)NO)cc9)cn8C)cn7C)cn6C)cn5C)cn4C)cn3C)cn2C)cn1C	Non-toxic	2	2	Active	1.5	–	Active	–	inactive	–	–
CN(C)CCCNC(=O)c1cc(NC(=O)c2cc(NC(=O)c3cc(NC(=O)c4cc(NC(=O)CCCNC(=O)c5cc(NC(=O)c6cc(NC(=O)c7cc(NC(=O)c8nc(NC(=O)CCNC(=O)CCNC(=O)CCNC(=O)c9ccc(NC(=O)CCCCCCC(=O)NO)cc9)cn8C)cn7C)cn6C)cn5C)cn4C)cn3C)cn2C)cn1C	Non-toxic	4.5	–	Active	1.5	1.5	Active	–	–	Active	–
CN(C)CCCNC(=O)c1cc(NC(=O)c2cc(NC(=O)c3cc(NC(=O)c4cc(NC(=O)CCCNC(=O)c5cc(NC(=O)c6cc(NC(=O)c7cc(NC(=O)c8nc(NC(=O)CCNC(=O)CCNC(=O)c9ccc(NC(=O)CCCCCCC(=O)NO)cc9)cn8C)cn7C)cn6C)cn5C)cn4C)cn3C)cn2C)cn1C	Non-toxic	3.1	2	Active	–	–	Active	inactive	inactive	–	–
O=C(CCCCCCC(=O)Nc1ccccc1)NO	–	–	–	Active	–	–	–	–	–	inactive	inactive
CC(=O)Nc1cn(C)c(C(=O)Nc2cc(C(=O)Nc3cc(C(=O)Nc4cc(C(=O)NCCCC(=O)Nc5cc(C(=O)Nc6cc(C(=O)Nc7cc(C(=O)Nc8cc(C(=O)NCCCN(C)CCCNC(=O)c9ccc(NC(=O)CCCCCCC(=O)NO)cc9)n(C)c8)n(C)c7)n(C)c6)n(C)c5)n(C)c4)n(C)c3)n(C)c2)n1	Non-toxic	2	2	Active	2.2	1.5	Active	–	–	–	–
CONC(=O)CCCCCCC(=O)Nc1ccc(C(=O)NCCC(=O)NCCC(=O)Nc2cn(C)c(C(=O)Nc3cc(C(=O)Nc4cc(C(=O)Nc5cc(C(=O)NCCCC(=O)Nc6cc(C(=O)Nc7cc(C(=O)Nc8cc(C(=O)Nc9cc(C(=O)NCCCN(C)C)n(C)c9)n(C)c8)n(C)c7)n(C)c6)n(C)c5)n(C)c4)n(C)c3)n2)cc1	–	–	–	Active	–	–	–	–	–	inactive	inactive
